For orientation: IC50 means the point on the concentration scale where inhibition reaches its midpoint.

This assay has as its target T1, human cGAS (residues 161-522) (Homo sapiens, UniProt Q8N884).
T1 construct: Recombinantly expressed purified human cGAS (residues 161-522) was used at 25nM; made in house
Kind of assay: Malachite Green assay to measure cGAS activity (coupled enzymatic assay, phosphate detection). It counts as biochemical. The following applies: recombinant purified human cGAS 25 nM; 80 μM ATP, 80 μM GTP, 100 nM ISD; 4 hour at RT; absorbance 620 nm. The procedure:
Malachite Green Assay to Measure cGAS Activity
Compounds were tested for cGAS inhibition in a coupled enzymatic assay based on Phosphate detection by Malachite Green. Final assay conditions were 20 mM TRIS pH 7.5 (Applichem), 5 mM MgCl2 (Sigma) and 0.01% BSA (Sigma) supplemented with 80 μM ATP (Sigma), 80 μM GTP (Sigma) and 100 nM Interferon Stimulating DNA (ISD) (Microsynth). Recombinantly expressed purified human cGAS (residues 161-522) was used at 25nM.
All compounds were prepared as 10 mM stock solutions in DMSO and a 16 pt dilution series in DMSO with a dilution factor of 2.5 was prepared. 1 μL of DMSO dilution series was transferred to 32.3 μL reaction buffer, mixed by pipetting up/down, spun for 1 minute at 3000 rpm and was visually inspected for precipitation. 5 μL of 3-fold enzyme stock solution were transferred to an empty 384-well Black/Clear Flat Bottom Polystyrene NBS (Corning) rows 3-24. Rows 1-2 were filled with assay buffer. Plates were spun 10 seconds at 1000 rpm (164×g). 5 μL of compound intermediate dilution was added and mixed by pipetting up/down to rows 3-24. Rows 1-2 were filled with 3.1% DMSO assay buffer. Plates were spun 10 seconds at 1000 rpm (164×g). 5 μL 3-fold Nucleotide/DNA mix was added to all wells to start the reaction. Plates were spun 10 seconds at 1000 rpm (164×g) and incubated for 4 hour at room temperature (RT) in the dark. 5 μL 4U/mL PPase (Sigma) were added to all wells. Plates spun 10 seconds at 1000 rpm (164×g). 10 μL BioMol green Solution (Enzo Life Sciences) was added to all wells. Plates spun 10 seconds at 1000 rpm (164×g) and incubated 30 minutes at RT in the dark. Absorbance data was collected 620 nm on an EnVision Multilable Reader (Perkin Elmer) and the following measurement settings were used: excitation filter photometric was 620 nm; excitation from the top; measurement height was 1 mm; number of flashes was 30; number of flashes integrated was 1.
All plates are checked for abnormalities and outliers in the Blank Control (no protein, row 1) and the Neutral Control (no compound, row 2) are excluded using the 3*SD rule. Data was normalized to 0 and 100% by Blank and Neutral Control and each curve was fitted and judged using the 4 parameter logistic equation to determine the IC50 for cGAS inhibition.
Table 1 provides IC50 values (μM) for cGAS inhibition obtained for particular examples of the present invention as measured by the above-described assay.

T1 sequence (Q8N884 161-522): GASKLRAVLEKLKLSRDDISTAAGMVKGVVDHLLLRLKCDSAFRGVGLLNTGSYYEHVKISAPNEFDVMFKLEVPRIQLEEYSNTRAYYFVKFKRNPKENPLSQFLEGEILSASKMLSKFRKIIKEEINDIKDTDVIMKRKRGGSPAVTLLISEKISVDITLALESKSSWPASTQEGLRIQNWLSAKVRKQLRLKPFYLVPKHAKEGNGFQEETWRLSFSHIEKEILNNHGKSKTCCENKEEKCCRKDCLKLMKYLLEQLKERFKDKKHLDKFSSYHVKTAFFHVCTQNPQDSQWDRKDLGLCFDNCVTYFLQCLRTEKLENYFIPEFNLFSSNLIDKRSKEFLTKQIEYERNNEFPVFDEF

Turning to `Cc1ccc(-c2cc(C(=O)O)c3cn(CCN4CCN(C)CC4)nc3c2)c(Cl)c1` [Example 1, 6-(2-Chloro-4-methylphenyl)-2-(2-(4-methylpiperazin-1-yl)ethyl)indazole-4-carboxylic acid], the 50% inhibitory concentration (IC50) amounted to 1.92 µM. `Cc1ccc(-c2cc(C(=O)O)c3cn(Cc4ccccc4Cl)nc3c2)c(Cl)c1` [Example 2, 6-(2-Chloro-4-methylphenyl)-2-[(2-chlorophenyl)methyl]indazole-4-carboxylic acid]: the IC50 turned out to be 2.2 µM. On to `Cc1ccc(-c2cc(C(=O)O)c3cn(Cc4cccc(Cl)c4)nc3c2)c(Cl)c1` [Example 3, 6-(2-Chloro-4-methylphenyl)-2-[(3-chlorophenyl)methyl]indazole-4-carboxylic acid], for which the IC50 came to 3.18 µM. As to `Cc1ccc(-c2cc(C(=O)O)c3cn(Cc4ccc(Cl)cc4)nc3c2)c(Cl)c1` [Example 4, 6-(2-Chloro-4-methylphenyl)-2-[(4-chlorophenyl)methyl]indazole-4-carboxylic acid], the IC50 turned out to be 2.76 µM. `Cc1ccc(-c2cc(C(=O)O)c3cn(Cc4nc(C5CC5)no4)nc3c2)c(Cl)c1` [Example 5, 6-(2-Chloro-4-methylphenyl)-2-((3-cyclopropyl-1,2,4-oxadiazol-5-yl)methyl)indazole-4-carboxylic acid]: the IC50 stood at 2.21 µM.

For `Cc1ccc(-c2cc(C(=O)O)c3cn(Cc4cccnc4)nc3c2)c(Cl)c1` [Example 6, 6-(2-Chloro-4-methylphenyl)-2-(pyridin-3-ylmethyl)indazole-4-carboxylic acid], the IC50 was 2.93 µM. As for `Cc1ccc(-c2cc(C(=O)O)c3cn(Cc4ccccn4)nc3c2)c(Cl)c1` [Example 7, 6-(2-Chloro-4-methylphenyl)-2-(pyridin-2-ylmethyl)indazole-4-carboxylic acid], the IC50 amounted to 2.4 µM. Turning to `Cc1ccc(-c2cc(C(=O)O)c3cn(Cc4nc(C)c(C)o4)nc3c2)c(Cl)c1` [Example 8, 6-(2-Chloro-4-methylphenyl)-2-((4,5-dimethyloxazol-2-yl)methyl)indazole-4-carboxylic acid], the IC50 worked out at 2.74 µM. On to `Cc1ccc(-c2cc(C(=O)O)c3cn(CC(F)(F)F)nc3c2)c(Cl)c1` [Example 9, 6-(2-Chloro-4-methylphenyl)-2-(2,2,2-trifluoroethyl)-2H-indazole-4-carboxylic acid], for which the IC50 came to 1.56 µM. Under `Cc1ccc(-c2cc(C(=O)O)c3cn(Cc4ccccc4)nc3c2)c(Cl)c1` [Example 10, 2-Benzyl-6-(2-chloro-4-methylphenyl)-2H--indazole-4-carboxylic acid] stands 1.37 µM; under `Cc1ccc(-c2cc(C(=O)O)c3cn(CCc4ccccc4)nc3c2)c(Cl)c1` [Example 11, 6-(2-Chloro-4-methylphenyl)-2-phenethyl-2H-indazole-4-carboxylic acid], 2.35 µM.

For `Cc1cc(Cl)c(-c2cc(C(=O)O)c3cn[nH]c3c2)cc1F` [Example 12, 6-(2-Chloro-5-fluoro-4-methylphenyl)-1H-indazole-4-carboxylic acid], the IC50 came out at 4.59 µM. In the case of `Cc1ccc(-c2cc(C(=O)O)c3cn[nH]c3c2)c(Cl)c1` [Example 13, 6-(2-Chloro-4-methylphenyl)-1H-indazole-4-carboxylic acid], the IC50 was 4.46 µM.

Values taken from patent US20230192623A1, “Indazole Derivatives” (Hoffmann-La Roche Inc., priority 2020, published 2023).
